Measured values as given in patent publication US20160272709A1, “ANTI-KIR ANTIBODIES” (The Regents of the University of Michigan, priority 2015, published 2016).

Assays:
[1] = system: CD4^+KIR^+NK1.1^− cells; assay: Flow cytometry (6G10) of KIR on murine T cells treated with 5-azaC; assay type: cell-based
[2] = system: CD3^+CD4^+CD28^+ T cells; assay: KIR and CD11a expression on PHA-stimulated, 5-azaC treated PBMC (flow cytometry); assay type: cell-based, human
Experimental: FIGS. 11A-D. 5-Azacytidine treatment of PHA-stimulated PBMC induces the expression of KIR proteins on a subset of CD4^+CD28^+CD11a^hi T cells. PBMC were stimulated for 18-24 hrs with PHA followed by treatment with 2.5 μM 5-azacytidine or saline for 72 hrs. The cells were then stained with fluorochrome-conjugated antibodies to methylation-sensitive gene products, fixed and analyzed by flow cytometry as described in Methods. Gating was established to select CD3^+CD4^+CD28^+ T cells. The CD3^+CD4^+CD28^+ T cells were then analyzed for CD11a and KIR using a cocktail of 5 PE-conjugated anti-KIR antibodies and imaged on a FACS Synergy flow cytometer. (A), Untreated T cells. (B), 5-azaC treated T cells. (C), 5-azaC treated PBMC stained only with the cocktail of anti-KIR antibodies. (D), 5-azaC treated T cells stained with antibodies to CD3, CD4, CD28, CD11a, CD70 and CD40L but not KIR. The figure shown is representative of 9 separate cultures.
The expression of methylation-sensitive genes was analyzed in 5-azaC treated cells from healthy women. PBMCs from a healthy […] were stimulated with PHA then cultured with or without 5-azaC. Seventy-two hours later the cells were washed, stained with fluorochromeconjugated antibodies to CD3, CD4, CD28, CD11a, CD70 and CD40L with and without a “cocktail” of PE conjugated antibodies to 5 distinct KIR proteins then analyzed by flow cytometry as outlined in FIG. 10. […]
In the absence of treatment with the demethylating agent 5-azaC very few KIR+ cells were observed (FIG. 11A). […] Further, CD11a expression on the majority (>70%) of the KIR^+CD3^+CD4^+CD28^+ cells treated with 5-azaC (FIG. 11B, rectangle) was nearly twice that of the corresponding KIR− T cells (FIG. 11B, circle) from the same cultures (median fluorescence intensity 2298+/−748 SD, versus 1394+/−572, respectively, n=9 analyzed in 7 different experiments, p<0.001). […]

[3] = system: KIRL1 mRNA; assay: KIRL1 mRNA relative to GAPDH by RT-PCR in CD4+ T cells from 5-azaC treated splenocytes; assay type: cell-based, murine; settings: ConA-stimulated splenocytes, n=4, p=0.038
Experimental: FIGS. 2A-B. (A) Murine splenocytes were stimulated with […], treated or not with 5-azaC, then KirL1 mRNA was measured in CD4^+ T cells relative to GAPDH by RT-PCR. (B) Double transgenic mice were given Dox or not in their drinking water, then KirL1 mRNA measured in CD4+ splenocytes as in panel A.
(§1) To test if the mouse T cell KIR genes are also activated by DNA methylation inhibition, murine splenocytes were stimulated with ConA, treated with 5-azaC, and KIRL1 mRNA measured relative to GAPDH by RT-PCR in CD4+ T cells bead purified by negative selection to remove NK and other non-CD4+ T cells.

[4] = lupus patients; cited from earlier work
[5] = system: CD4^+KIRL1^+CD11a^hiCD40L^+ subset; assay: Multicolor flow cytometry of splenocytes of SJL mice given dox for 6 weeks; assay type: in vivo; settings: dox 6 weeks; controls 0.007%
Source text: SJL mice were given dox for 6 weeks, sacrificed, then splenocytes stained with Pacific Blue-CD3; FITC-CD8; PE-CD40L; PE-Cy5-CD4; Avidin-APC-Cy7/biotin-KIRL1; PERCP-Cy5.5-CD11a. Mice receiving dox developed a CD4^+KIRL1^+CD11a^hiCD40L^+ subset that resembles the human lupus subset shown in FIG. 1, and represented 1.09% of the total CD11a+ cells, while controls had only 0.007% CD4^+KIRL1^+CD11a^hiCD40L^+ cells.

[6] = system: CD4^+KIR^+NK1.1^− cells; assay: Flow cytometry (6G10) of KIR on CD4+ splenocytes of tet-on dnMEK transgenic mice receiving dox; assay type: in vivo
Experimental: FIGS. 3A-B.) Double transgenic mice were given Dox (B) or not (A) in their drinking water, then KirL1 expression was measured on CD4+ splenocytes by flow cytometry.
as §1

In the case of Nc1ncn([C@@H]2O[C@H](CO)[C@@H](O)[C@H]2O)c(=O)n1 [5-azaC, 5-azacytidine], the “increase in CD4^+KIR^+NK1.1^− cells” value [1] is reported as 3.1 fold, the “numbers of KIR+ cells” value ([2]; 2.5 μM 5-azaC 72 hrs after PHA) is reported as “increases the numbers of KIR+ cells” and the “CD11a median fluorescence intensity on KIR^+CD3^+CD4^+CD28^+ cells” value ([2]; 5-azaC treated cultures, SD, n=9, p<0.001 vs KIR− cells) is reported as 2298+/−748. The “CD11a median fluorescence intensity on corresponding KIR− T cells” value ([2]; same 5-azaC treated cultures, SD, n=9) was 1394+/−572 and the “KIRL1 mRNA relative to GAPDH” value [3] was “overexpressed KIRL1 mRNA”.

For CC(=O)N[C@@H](CS)C(=O)O [N-acetylcysteine], the flare severity [4] is listed as “decreases flare severity”.

In the case of C[C@H]1c2cccc(O)c2C(=O)C2=C(O)[C@]3(O)C(=O)C(C(N)=O)=C(O)[C@@H](N(C)C)[C@@H]3[C@@H](O)[C@@H]21 [dox, doxycycline], the “CD4^+KIRL1^+CD11a^hiCD40L^+ subset, % of total CD11a+ cells” value [5] is reported as 1.09%, the “KIR expression, % of total CD4+ T cells” value ([6]; tet-on mouse with higher KIR expression, FIGS. 3A-B) is reported as 3.9% and the “increase in CD4^+KIR^+NK1.1^− cells” value ([6]; transgenic mice receiving dox) is reported as 5.7 fold.
